Source: PubChem BioAssay AID328 (DTP/NCI, 2004)
Toxic doses and inconclusive results are not listed. How the source made its calls: active means survival T/C of 150% or more; inactive means T/C below 125% in these data.

Tested on: BDF1 mice, P388 leukemia ip, median survival T/C
Experiment: NCI In Vivo Anticancer Drug Screen. Data for tumor model P388 Leukemia (intraperitoneal) in B6D2F1 (BDF1) mice
Settings: endpoint: median survival time, higher = longer survival
Outline: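 In tumour-bearing mice, survival after compound treatment is set against the vehicle group and given as a quotient.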

[1] = dose: 100.0 mg/kg/injection, schedule: Q01DX009 (ip), vehicle: saline
[2] = dose: 100.0 mg/kg/injection, schedule: Q04DX003 (ip), vehicle: saline
[3] = dose: 200.0 mg/kg/injection, schedule: Q01DX009 (ip), vehicle: saline
[4] = dose: 200.0 mg/kg/injection, schedule: Q04DX003 (ip), vehicle: saline
[5] = dose: 100.0 mg/kg/injection, schedule: Q04DX003 (ip), vehicle: Klucel (hydroxypropylcellulose) (HPC)
[6] = dose: 50.0 mg/kg/injection, schedule: Q01DX009 (ip), vehicle: saline with Tween-80
[7] = dose: 100.0 mg/kg/injection, schedule: Q01DX009 (ip), vehicle: saline with Tween-80
[8] = dose: 200.0 mg/kg/injection, schedule: Q01DX009 (ip), vehicle: saline with Tween-80

Measured: T/C

NC(=O)CC1=NCCc2ccccc21
inactive: dose: 50.0 mg/kg/injection, schedule: Q01DX009 (ip), vehicle: saline 95 % of control | dose: 50.0 mg/kg/injection, schedule: Q04DX003 (ip), vehicle: saline 100 % of control | [1] 91 % of control | [2] 100 % of control | [3] 91 % of control | [4] 113 % of control

N#CC1CCCC1=O (stereo not given)
inactive: dose: 5.0 mg/kg/injection, schedule: Q01DX009 (ip), vehicle: saline 108 % of control | dose: 10.0 mg/kg/injection, schedule: Q01DX009 (ip), vehicle: saline 91 % of control

Cc1n[nH]c(=O)[nH]c1=O
inactive: dose: 12.5 mg/kg/injection, schedule: Q01DX009 (ip), vehicle: Klucel (hydroxypropylcellulose) (HPC) 100 % of control | dose: 25.0 mg/kg/injection, schedule: Q01DX009 (ip), vehicle: Klucel (hydroxypropylcellulose) (HPC) 109 % of control | dose: 50.0 mg/kg/injection, schedule: Q01DX009 (ip), vehicle: Klucel (hydroxypropylcellulose) (HPC) 100 % of control | dose: 100.0 mg/kg/injection, schedule: Q01DX009 (ip), vehicle: Klucel (hydroxypropylcellulose) (HPC) 91 % of control

COc1cc2c(=O)n(C)c3c4cc5c(cc4ccc3c2cc1OC)OCO5
inactive: dose: 1.0 mg/kg/injection, schedule: Q01DX010 (ip), vehicle: steriod suspending solution 103 % of control | dose: 3.0 mg/kg/injection, schedule: Q01DX010 (ip), vehicle: steriod suspending solution 117 % of control | dose: 6.0 mg/kg/injection, schedule: Q01DX010 (ip), vehicle: steriod suspending solution 110 % of control

CCN(CC)CCOC(=O)c1ccccc1N(c1ccccc1)c1ccccc1
inactive: dose: 62.5 mg/kg/injection, schedule: Q01DX009 (ip), vehicle: Klucel (hydroxypropylcellulose) (HPC) 118 % of control | dose: 125.0 mg/kg/injection, schedule: Q01DX009 (ip), vehicle: Klucel (hydroxypropylcellulose) (HPC) 118 % of control

COc1ccc(/C=C(/C#N)C(N)=O)cc1Br
inactive: dose: 100.0 mg/kg/injection, schedule: Q01DX001 (ip), vehicle: Klucel (hydroxypropylcellulose) (HPC) 100 % of control | [1] 100 % of control | [2] 100 % of control | dose: 200.0 mg/kg/injection, schedule: Q01DX001 (ip), vehicle: Klucel (hydroxypropylcellulose) (HPC) 113 % of control | [3] 95 % of control | [4] 120 % of control | dose: 400.0 mg/kg/injection, schedule: Q01DX001 (ip), vehicle: Klucel (hydroxypropylcellulose) (HPC) 109 % of control | dose: 400.0 mg/kg/injection, schedule: Q01DX009 (ip), vehicle: saline 90 % of control | dose: 400.0 mg/kg/injection, schedule: Q04DX003 (ip), vehicle: saline 120 % of control

c1ccc(C([CH2][Hg][CH2]C(c2ccccc2)c2ccccc2)c2ccccc2)cc1
inactive: dose: 100.0 mg/kg/injection, schedule: Q01DX009 (ip), vehicle: other 100 % of control | [5] 100 % of control | dose: 200.0 mg/kg/injection, schedule: Q01DX009 (ip), vehicle: other 104 % of control | dose: 200.0 mg/kg/injection, schedule: Q04DX003 (ip), vehicle: Klucel (hydroxypropylcellulose) (HPC) 116 % of control | dose: 400.0 mg/kg/injection, schedule: Q01DX009 (ip), vehicle: other 114 % of control | dose: 400.0 mg/kg/injection, schedule: Q04DX003 (ip), vehicle: Klucel (hydroxypropylcellulose) (HPC) 100 % of control

CC(=O)N1C(=O)NC(=O)C1(C)c1cccs1 (stereo not given)
inactive: [6] 109 % of control | [7] 111 % of control | dose: 100.0 mg/kg/injection, schedule: Q04DX003 (ip), vehicle: saline with Tween-80 100 % of control | [8] 109 % of control | dose: 200.0 mg/kg/injection, schedule: Q04DX003 (ip), vehicle: saline with Tween-80 90 % of control | dose: 400.0 mg/kg/injection, schedule: Q04DX003 (ip), vehicle: saline with Tween-80 90 % of control

Oc1ccc(OCc2ccccc2)cc1
inactive: dose: 100.0 mg/kg/injection, schedule: Q04DX003 (ip), vehicle: other 100 % of control | dose: 200.0 mg/kg/injection, schedule: Q04DX003 (ip), vehicle: other 104 % of control | dose: 400.0 mg/kg/injection, schedule: Q04DX003 (ip), vehicle: other 100 % of control

CN(C)c1cc2nc[nH]c(=O)c2cc1[N+](=O)[O-]
inactive: [5] 116 % of control

O=C(/C=C/c1ccc(OCc2ccccc2)cc1)c1ccccc1Br
inactive: [6] 96 % of control | [7] 107 % of control | [8] 105 % of control
